Test results: ChEMBL document CHEMBL5727915, “Substituted [5,6]cyclic-4(3H)-pyrimidinones as anticancer agents” (2020)

Each compound was assayed against CDC7/DBF4 (Cell division cycle 7-related protein kinase/Activator of S phase kinase) (Homo sapiens, UniProt O00311) (assay: Biochemical Assay: Biochemical assay was tested in the U-shaped bottom 384 plate (corning, #4514) with a final volume of […] at 27° C. The concentration of CDC7 was optimized by the enzyme titration experiment. CDC7 kinase was diluted in assay buffer (40 mM Tris.HCl pH 7.25, 100 ug/mL BSA, and 20 mM MgCl2) to get 2.4× enzyme solutions. Compounds were dissolved in 10 mM DMSO, and series diluted in DMSO from 0.3 mM to 0.3 nM (5 concentration pts); All dilutions were diluted 30× in assay buffer to get 6× compounds solutions. MCM2 Substrate and ATP were diluted to 2.4× mixed solution. Add 2 ul test compound solution to 384 assay plate, then add 5 ul substrate/ATP mixed solution, at last add 5 ul enzyme solution, incubate at 27° C. for 180 mins. Transfer 5 ul reaction solution to another 384 assay plate, then add 5 ul ADP-Glo™ Reagent (Promega) to each well and incubate at 27° C. for 40 mins; Add 10 ul Kinase Detection Reagent (Promega) to each well and incubate at 27° C. for 30 mins. 10 uM CDC7-3 compound was used as 100% inhibition while 100% DMSO control was used as 0% inhibition. Each test has three replications at least.).
Sequence of CDC7/DBF4 (Cell division cycle 7-related protein kinase/Activator of S phase kinase) (Q9UBU7 whole entry): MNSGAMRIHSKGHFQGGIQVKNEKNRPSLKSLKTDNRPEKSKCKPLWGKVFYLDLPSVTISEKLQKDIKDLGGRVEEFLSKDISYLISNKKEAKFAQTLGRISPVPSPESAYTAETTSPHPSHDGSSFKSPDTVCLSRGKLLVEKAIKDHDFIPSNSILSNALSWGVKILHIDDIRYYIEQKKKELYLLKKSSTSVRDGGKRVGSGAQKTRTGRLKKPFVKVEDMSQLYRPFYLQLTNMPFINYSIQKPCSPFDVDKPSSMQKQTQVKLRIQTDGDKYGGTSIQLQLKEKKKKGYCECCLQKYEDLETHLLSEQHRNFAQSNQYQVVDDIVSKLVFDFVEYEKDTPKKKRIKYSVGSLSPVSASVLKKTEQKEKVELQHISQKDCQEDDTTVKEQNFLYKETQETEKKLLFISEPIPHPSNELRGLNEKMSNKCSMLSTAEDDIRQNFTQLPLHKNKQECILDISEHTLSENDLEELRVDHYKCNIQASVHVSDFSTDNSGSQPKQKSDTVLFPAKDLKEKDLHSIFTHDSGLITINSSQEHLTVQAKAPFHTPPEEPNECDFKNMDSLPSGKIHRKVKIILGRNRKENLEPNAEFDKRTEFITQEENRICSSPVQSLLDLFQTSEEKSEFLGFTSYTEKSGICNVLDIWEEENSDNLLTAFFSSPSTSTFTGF
Sequence of CDC7/DBF4 (Cell division cycle 7-related protein kinase/Activator of S phase kinase) (O00311 whole entry): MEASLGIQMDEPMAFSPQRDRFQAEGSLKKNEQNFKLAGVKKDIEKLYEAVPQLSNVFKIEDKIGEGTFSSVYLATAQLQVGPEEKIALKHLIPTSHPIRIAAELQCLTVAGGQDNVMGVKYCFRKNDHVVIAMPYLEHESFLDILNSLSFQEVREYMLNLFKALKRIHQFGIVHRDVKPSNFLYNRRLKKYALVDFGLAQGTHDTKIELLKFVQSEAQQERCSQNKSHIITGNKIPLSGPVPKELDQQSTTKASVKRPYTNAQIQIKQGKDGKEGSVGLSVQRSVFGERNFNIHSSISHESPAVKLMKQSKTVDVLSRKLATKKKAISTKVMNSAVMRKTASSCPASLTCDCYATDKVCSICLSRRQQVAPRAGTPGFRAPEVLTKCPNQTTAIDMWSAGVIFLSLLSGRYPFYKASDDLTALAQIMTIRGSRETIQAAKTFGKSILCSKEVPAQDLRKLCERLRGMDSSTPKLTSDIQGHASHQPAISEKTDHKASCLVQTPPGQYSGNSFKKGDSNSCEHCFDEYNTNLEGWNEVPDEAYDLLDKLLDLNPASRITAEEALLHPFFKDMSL
Assay type: protein-complex assay
`CC[C@H](N)c1nc2cc(-c3ccnc(F)c3)sc2c(=O)[nH]1` gave an IC50 of under 1000 nM.
`Cc1cc(-c2cc3nc([C@@H](N)C(C)C)[nH]c(=O)c3s2)ccn1` gave an IC50 of under 1000 nM.
In the case of `CC(C)[C@H](N)c1nc2cc(-c3ccnc(Cl)c3)sc2c(=O)[nH]1`, the IC50 is reported as under 1000 nM.
`CN[C@H](c1nc2cc(-c3ccnc(F)c3)sc2c(=O)[nH]1)C(C)C` showed an IC50 of under 10000 nM.
